Experimental data as given in patent US8143282B2, “Heterocyclic compounds” (S*BIO Pte Ltd., priority 2005, dated 2012).
pIC50: −log10 of the molar value.

Legend:
[1] = In vivo pharmacokinetic (PK) studies; details: mouse, plasma, po; mice, hydrochloric acid salt form (2HCl), 50 mg/kg
Description: Compound was dissolved in appropriate solution (saline or DMA and Cremaphor in saline) at 1 mg/ml for intravenous (IV) administration, or in 0.5% methyl cellulose, 0.1% Tween 80 in water at 5 mg/ml for oral administration. Mice were randomized according to body weight, grouped three per time point. Mice were administered single IV dose (10 mg/kg) via tail vein, or single oral dose (50 mg/kg) via gavage. At pre-defined time points (predose, 5 or 10, 30 min, 1, 2, 4, 8, and 24 h), one group of mice was sacrificed by overdose CO2 and blood samples were collected by cardiac puncture. The blood samples were centrifuged immediately for 10 min at 3000 rpm to separate plasma, and plasma was kept frozen at −80° C. until analysis by LC/MS/MS. Before sample analysis, the method was developed for LC/MS/MS assay. The method was validated for signal-response of the calibration standards, auto-sampler stability for ˜15 hours intra-day and inter-day calibration curve using eight calibration standards excluding the blank plasma. QC samples at three different concentrations in triplicates were prepared to determine the accuracy and precision. The extracted QC samples were compared to unextracted samples to determine the extraction efficiency of the analyte. LLOQ was determined by using triplicate samples of 1 ng/mL and 2 ng/mL to obtain accuracy and precision at the low end. Samples were analysed using the validated method. Data was analyzed by the non-compartmental model using WinNolin 4.0 software (Pharsight, Mountain View, Calif., USA). The mean values for the plasma compound concentration-time profiles were used in mouse PK study.
The PK parameter AUC0-last providing the information on the overall exposure of the drug in vivo is one of the key PK/PD parameters that helps in predicting the efficacy of an anti-cancer compound. The higher the AUC value, the better will be the in vivo efficacy of the compound at similar in vitro potency.

[2] = Measurement of microsomal stability; type: in vitro ADME; details: pooled human liver microsomes, pH 7.4; human liver microsome, 5 μM test compound, 1.0 mg/ml microsomal protein
Description: Metabolic stability measurements in the in vitro using liver microsomes aids in the prediction of the in vivo hepatic clearance and the compound stability towards phase I biotransformation reactions mediated by P450 isozymes.
Pooled human liver microsome (HLM was purchased from BD Gentest (BD BioSciences). The incubations consisted of test compound (5 μM) or control compound (Verapamil), NADPH-generating system solution A (25 mM NADP^+, 66 mM glucose-6-phosphate, 66 mM MgCl2 in H2O), NADPH-generating system solution B (40 U/ml glucose-6-phosphate dehydrogenase in 5 mM sodium citrate) and 1.0 mg/ml microsomal protein, respectively, in 100 mM potassium phosphate buffer (pH 7.4). Samples were incubated for 0, 5, 15, 30, 45, 60 min. Reaction was terminated with ice-cold 80% acetonitrile and 20% DMSO. Samples were subsequently centrifuged at 4° C. for 15 min at 2,000 rpm. 100 μL of the supernatant was transferred to the LC-MS Plate for analysis. Before quantitative analysis, the compound was tuned in LC/MS machine to get the optimized MS condition. Liquid chromatography was performed on a Luna C18 column (Phenomenex U.S.A, Torrance, Calif.) (2×50 mm, 5 μM). % of the compound remaining (by area) at each time point is calculated with respect to time 0 min. Plot % remaining against time (min) to obtain the curve and use the Prism software to obtain the t1/2.

HCT116 = assay: Cell-based proliferation assay for GI50 (CyQUANT), HCT116; details: Homo sapiens, HCT-116; HCT116, 96 h treatment; read-out: Cellular or Growth Inhibition Activity, GI50, HCT116
Description: (§1) Human colon cancer cell lines (Colo205, HCT116), Ovarian cancer cell line (A2780), Hepatoma cell line (HEP3B), Prostate cancer cell line (PC3) were obtained from ATCC or ECACC. Colo205 cells were cultivated in RPMI 1640 containing 2 mM L-Glutamine, 5% FBS, 1.0 mM Na Pyruvate, 1 U/ml of penicillin and 1 μg of streptomycin. HCT116 cells were cultivated in McCoy's containing RPMI 1640 containing 2 mM L-Glutamine, 5% FBS, 1 U/ml of penicillin and 1 μg of streptomycin. A2780 cells were cultivated in RPMI 1640 containing 2 mM L-Glutamine, 5% FBS, 1 U/ml of penicillin and 1 μg of streptomycin. HEP3B cells were cultivated in EMEM containing 2 mM L-glutamine, 5% FBS, 1% non essential amino acid, 1 mM Na Pyruvate, 1 U/ml of penicillin and 1 μg of streptomycin. PC3 cells were cultivated in F12K, 2 mM L-glutamine, 5% FBS, 1 U/ml of penicillin and 1 μg of streptomycin. PC3, Colo205, and HCT116 cells were seeded in 96-wells plate at 1000, 5000 and 6000 cells per well respectively. A2780 and HEP3B cells were seeded in 96-wells plate at 4000 cells per well respectively. The plates were incubated at 37° C., 5% CO2, for 24 h. Cells were treated with compounds at various concentrations for 96 h. Cell growth was then monitored using CyQUANT® cell proliferation assay (Invitrogen Pte Ltd). Dose response curves were plotted to determine GI50 values for the compounds using XL-fit (ID Business Solution, Emeryville, Calif.). GI50 is defined as the concentration of compound required for 50% inhibition of cell growth.

A2780 = assay: Cell-based proliferation assay for GI50 (CyQUANT), A2780; details: Homo sapiens; A2780, 96 h treatment; read-out: Cellular or Growth Inhibition Activity, GI50, A2780
Description: as §1

PC3 = assay: Cell-based proliferation assay for GI50 (CyQUANT), PC3; details: Homo sapiens, PC-3; PC3, 96 h treatment; read-out: Cellular or Growth Inhibition Activity, GI50, PC3
Description: as §1

Colo205 cells = assay: Cell-based proliferation assay for GI50 (CyQUANT), Colo205; details: Homo sapiens, COLO 205, 96 h treatment, read-out: Cellular or Growth Inhibition Activity in Colo205 cells, GI50
Summary of the method: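 Cells were seeded at 1000 (PC3), 5000 (Colo205), 6000 (HCT116) or 4000 (HEP3B) per well and left 24 h at 37° C. Compound treatment lasted 96 h. Growth was read by CyQUANT, and GI50 (50% growth inhibition) came from dose-response curves.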

HDAC1 enzyme = biological target: T1, HDAC1 enzyme (Homo sapiens, UniProt Q13547); assay: In vitro HDAC assay for determination of IC50 values (BIOMOL fluorescent-based HDAC activity assay); type: biochemical
T1 construct: Amplification of human HDAC1 coding region from this cDNA library was cloned separately into the baculovirus expression pDEST20 vector; made in house; host or cells: SF9 insect cells, pDEST20-HDAC1 baculovirus
Summary of the method: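 Recombinant GST-HDAC1, cloned from SW620 cDNA and expressed in Sf9 cells, tested in a fluorogenic Fluor de Lys deacetylase assay. Developer was added for 10 min and fluorescence read at 360/460 nm. IC50 came from concentration series.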

HEP3B = assay: Cell-based proliferation assay for GI50 (CyQUANT), HEP3B; details: Homo sapiens, 96 h treatment, read-out: Cellular or Growth Inhibition Activity, GI50, HEP3B
Description: as §1

acetylated histone H3 = assay: Histone H3 acetylation assay (immuno-blotting) in Colo205 cells; type: cell-based, Human; details: 10 μM, 24 h, western-blot
Description: A hallmark of histone deacetylase (HDAC) inhibition is the increase in the acetylation level of histones. Histone acetylation, including H3, H4 and H2A can be detected by immuno-blotting (western-blot). Colo205 cells, approximately 5×10^5 cells, were seeded in the previously described medium, cultivated for 24 h and subsequently treated with HDAC inhibitory agents and a positive control at a final concentration of 10 μM. After 24 h, cells were harvested and lysed according to the instruction from Sigma Mammalian Cell Lysis Kit. The protein concentration was quantified using BCA method (Sigma Pte Ltd). The protein lysate was separated using 4-12% bis-tris SDS-PAGE gel (Invitrogen Pte Ltd) and was transferred onto PVDF membrane (BioRad Pte Ltd). The membrane was probed using primary antibody specific for acetylated histone H3 (Upstate Pte Ltd). The detection antibody, goat anti rabbit antibody conjugated with HRP was used according to the manufacturing instruction (Pierce Pte Ltd). After removing the detection antibody from the membrane, an enhanced chemiluminescent substrate for detection of HRP (Pierce Pte Ltd) was added onto the membrane. After removing the substrate, the membrane was exposed to an X-ray film (Kodak) for 1 sec-20 mins. The X-ray film was developed using the X-ray film processor. The density of each band observed on the developed film could be qualitatively analyzed using UVP Bioimaging software (UVP, Inc, Upland, Calif.). The values were then normalized against the density of actin in the corresponding samples to obtain the expression of the protein.

T1 sequence (Q13547 whole entry): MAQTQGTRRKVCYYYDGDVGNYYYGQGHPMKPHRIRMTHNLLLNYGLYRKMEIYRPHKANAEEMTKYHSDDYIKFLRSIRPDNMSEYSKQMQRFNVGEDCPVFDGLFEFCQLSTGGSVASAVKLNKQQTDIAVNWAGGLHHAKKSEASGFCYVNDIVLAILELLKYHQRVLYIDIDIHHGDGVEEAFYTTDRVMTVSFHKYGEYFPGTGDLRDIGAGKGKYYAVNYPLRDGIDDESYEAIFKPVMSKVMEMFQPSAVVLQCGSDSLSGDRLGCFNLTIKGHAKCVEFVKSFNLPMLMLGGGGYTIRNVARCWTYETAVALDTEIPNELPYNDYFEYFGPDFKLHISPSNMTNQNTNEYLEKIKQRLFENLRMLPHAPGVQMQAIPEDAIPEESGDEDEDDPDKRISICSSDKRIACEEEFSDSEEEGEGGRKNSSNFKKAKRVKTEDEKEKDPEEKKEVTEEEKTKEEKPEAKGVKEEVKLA

| SMILES | AUC(0-t) [1] | half-life at 5 μM [2] | GI50 (HCT116) | GI50 (A2780) | GI50 (PC3) | GI50 (Colo205 cells) | pIC50 (HDAC1 enzyme) | GI50 (HEP3B) | Histone Acetylation activities (Histone-3) (acetylated histone H3) |
| --- | --- | --- | --- | --- | --- | --- | --- | --- | --- |
| CCCCc1nc2cc(/C=C/C(=O)NO)ccc2n1CCN(CC)CC [Compound 8, 3-[2-Butyl-1-(2-diethylamino-ethyl)-1H-benzoimidazol-5-yl]-N-hydroxy-acrylamide] | 1.84 µg·h/mL | > 30 min | 0.5 to 1 µM | 0.5 to 1 µM | < 0.5 µM | 0.56 µM | 7.28 | 1 to 5 µM |  |
| CCCCc1nc2cc(/C=C/C(=O)NO)ccc2n1CCNC(C)C [Compound 46, 3-[2-Butyl-1-(2-isopropylamino-ethyl)-1H-benzoimidazol-5-yl]-N-hydroxy-acrylamide] |  | > 30 min | < 0.5 µM | < 0.5 µM | < 0.5 µM | 0.48 µM | 7.31 | 0.5 to 1 µM |  |
| CCCCCCc1nc2cc(/C=C/C(=O)NO)ccc2n1CCNC [Compound 74, 3-[2-Hexyl-1-(2-methylamino-ethyl)-1H-benzoimidazol-5-yl]-N-hydroxy-acrylamide] |  | > 30 min |  |  |  | 0.55 µM | 7.55 |  | Active |
| CN(C)CC(C)(C)Cn1c(CC(C)(C)C)nc2cc(/C=C/C(=O)NO)ccc21 [Compound 1, 3-[1-(3-Dimethylamino-2,2-dimethyl-propyl)-2-(2,2-dimethyl-propyl)-1H-benzoimidazol-5-yl]-N-hydroxy-acrylamide] | 1.87 µg·h/mL | > 30 min | 0.5 to 1 µM | < 0.5 µM | < 0.5 µM | 0.5 µM | 7.38 | 0.5 to 1 µM |  |
| CCCCc1nc2cc(/C=C/C(=O)NO)ccc2n1CCNCC [Compound 44, 3-[2-Butyl-1-(2-ethylamino-ethyl)-1H-benzoimidazol-5-yl]-N-hydroxy-acrylamide] |  | > 30 min | 1 to 5 µM | 0.5 to 1 µM | < 0.5 µM | 0.87 µM | 7.27 |  |  |
| CCCCCc1nc2cc(/C=C/C(=O)NO)ccc2n1CCN(C)C [Compound 65, 3-[1-(2-Dimethylamino-ethyl)-2-pentyl-1H-benzoimidazol-5-yl]-N-hydroxy-acrylamide] |  |  |  |  |  | 0.56 µM | 7.11 |  | Active |
| CCCCCc1nc2cc(/C=C/C(=O)NO)ccc2n1CCNC(C)C [Compound 71, N-Hydroxy-3-[1-(2-isopropylamino-ethyl)-2-pentyl-1H-benzoimidazol-5-yl]-acrylamide] |  | > 30 min | < 0.5 µM | < 0.5 µM | < 0.5 µM | 0.24 µM | 7.40 |  | Active |
| CCCCCCc1nc2cc(/C=C/C(=O)NO)ccc2n1CCN(C)C [Compound 58, 3-[1-(2-Dimethylamino-ethyl)-2-hexyl-1H-benzoimidazol-5-yl]-N-hydroxy-acrylamide] |  | > 30 min | < 0.5 µM | < 0.5 µM | < 0.5 µM | 0.38 µM | 7.52 | < 0.5 µM |  |
| CCCCCc1nc2cc(/C=C/C(=O)NO)ccc2n1CCNCC [Compound 68, 3-[1-(2-Ethylamino-ethyl)-2-pentyl-1H-benzoimidazol-5-yl]-N-hydroxy-acrylamide] |  | > 30 min |  |  |  | 0.52 µM | 7.47 |  | Active |
| CCN(CCn1cnc2cc(/C=C/C(=O)NO)ccc21)CCC(C)(C)C [Compound 111, 3-(1-{2-[(3,3-Dimethyl-butyl)-ethyl-amino]-ethyl}-1H-benzoimidazol-5-yl)-N-hydroxy-acrylamide] |  |  |  |  |  | 0.21 µM | 7.54 | < 0.5 µM |  |
| CCNCCn1c(CCC(C)(C)C)nc2cc(/C=C/C(=O)NO)ccc21 [Compound 63, 3-[1-(2-ethylamino-ethyl)-2-(3,3-dimethyl-butyl)-1H-benzoimidazol-5-yl]-N-hydroxy-acrylamide] |  | > 30 min |  |  |  | 0.54 µM | 7.29 |  | Active |
